Results taken from ChEMBL document CHEMBL1148760, “Novel generation of pH indicators for proton magnetic resonance spectroscopic imaging” (J Med Chem, 2007).

Columns and labels:
[1] = Dissociation constant, pKa in deuterated water solution; type: physicochemical; conditions: read-out: Apparent_pKa
[2] = tested on: C6; experiment: Cytotoxicity in rat C6 cells assessed as intracellular release of lactic dehydrogenase; type: functional
[3] = Dissociation constant, pKa in presence of fetal bovine serum; type: physicochemical; conditions: cattle, solution containing fetal bovine serum; read-out: Apparent_pKa

| pKa [1] | pKa [3] | Compound | Activity [2] [%] |
| --- | --- | --- | --- |
| 6.45 | – | OC(Cn1ccnc1)Cn1ccnc1 | – |
| 7 | 6.63 | O[C@@H]([C@H](O)[C@H](O)Cn1ccnc1)[C@H](O)Cn1ccnc1 | <10 |
| 6.56 | 6.67 | O[C@@H](Cn1ccnc1)[C@@H](O)Cn1ccnc1 | <10 |
